Results as given in US9206128B2 (Constellation Pharmaceuticals, Inc., priority 2011, dated 2015).

Key:
[1] = target: EZH2 (Homo sapiens, UniProt Q15910); assay: EZH2 activity inhibition assay (rPRC2, 3H SAM, biotinylated oligonucleosomes, FlashPlate); type: biochemical; conditions: rPRC2, 2 nM EZH2, 0.2 μM 3H SAM, top concentration 80 μM
Description: (§1) EZH2 Assay: Assays were carried out by mixing rPRC2 together with biotinylated oligonucleosome substrates in the presence of the radio-labeled enzyme co-factor, S-adenosyl-L-methionine (^3H SAM) (Perkin Elmer) and monitoring the enzymatically mediated transfer of tritiated methyl groups from ^3H SAM to histone lysine residues. The amount of resulting tritiated methyl histone product was measured by first capturing the biotinylated oligonucleosomes in streptavidin (SAV) coated FlashPlates (Perkin Elmer), followed by a wash step to remove un-reacted ^3H SAM, and then counting on a TopCount NXT 384 well plate scintillation counter (Perkin Elmer).
A 12.5 μL volume of the HMT enzyme, H3K27me3 peptide and oligonucleosome substrate in assay buffer was added to each well of the assay plate using a Multidrop Combi (ThermoFisher). Compounds were pre-incubated with the enzyme for 20 min, followed by initiation of the methyltransferase reaction by addition of 12.5 μL of 3H SAM in assay buffer (final volume=25 μL). […] Stopped reactions were transferred to SAV coated Flashplates (Perkin Elmer), incubated for 120 min, washed with a plate washer, and then read on the TopCount NXT (1.0 min/well) to measure the amount of methyl histone product formed during the reaction.

[2] = target: Y641N EZH2 (Homo sapiens, UniProt Q15910, Y641N); assay: Y641N EZH2 activity inhibition assay (as EZH2 assay, reconstituted H3K27Me2 oligonucleosomes as substrate); type: biochemical; conditions: Y641N EZH2 mutant enzyme
Description: as §1, with “Elmer). The final assay conditions for EZH2 were as follows: 50 mM Tris Buffer pH 8.5, 1 mM DTT, 69 μM Brij-35 detergent, 5.0 mM MgCl2, 0.1 mg/mL BSA, 0.2 μM ^3H SAM, 0.2 μM biotinylated oligonucleosomes, 3.6 μM H3K27me3 peptide and 2 nM EZH2.” for “Elmer).”
A 12.5 μL volume of the HMT enzyme, H3K27me3 peptide and oligonucleosome substrate in assay buffer was added to each well of the assay plate using a Multidrop Combi (ThermoFisher). Compounds were pre-incubated with the enzyme for 20 min, followed by initiation of the methyltransferase reaction by addition of 12.5 μL of 3H SAM in assay buffer (final volume=25 μL). The final concentrations of compounds ranged from a top default concentration of 80 μM down to 0.16 μM in ten 2-fold dilution steps. Reactions were carried out for 60 minutes and quenched with 20 μL per well of 1.96 mM SAH, 50 mM Tris PH 8.5, 200 mM EDTA. Stopped reactions were transferred to SAV coated Flashplates (Perkin Elmer), incubated for 120 min, washed with a plate washer, and then read on the TopCount NXT (1.0 min/well) to measure the amount of methyl histone product formed during the reaction.

Chain of EZH2 (Q15910 whole entry): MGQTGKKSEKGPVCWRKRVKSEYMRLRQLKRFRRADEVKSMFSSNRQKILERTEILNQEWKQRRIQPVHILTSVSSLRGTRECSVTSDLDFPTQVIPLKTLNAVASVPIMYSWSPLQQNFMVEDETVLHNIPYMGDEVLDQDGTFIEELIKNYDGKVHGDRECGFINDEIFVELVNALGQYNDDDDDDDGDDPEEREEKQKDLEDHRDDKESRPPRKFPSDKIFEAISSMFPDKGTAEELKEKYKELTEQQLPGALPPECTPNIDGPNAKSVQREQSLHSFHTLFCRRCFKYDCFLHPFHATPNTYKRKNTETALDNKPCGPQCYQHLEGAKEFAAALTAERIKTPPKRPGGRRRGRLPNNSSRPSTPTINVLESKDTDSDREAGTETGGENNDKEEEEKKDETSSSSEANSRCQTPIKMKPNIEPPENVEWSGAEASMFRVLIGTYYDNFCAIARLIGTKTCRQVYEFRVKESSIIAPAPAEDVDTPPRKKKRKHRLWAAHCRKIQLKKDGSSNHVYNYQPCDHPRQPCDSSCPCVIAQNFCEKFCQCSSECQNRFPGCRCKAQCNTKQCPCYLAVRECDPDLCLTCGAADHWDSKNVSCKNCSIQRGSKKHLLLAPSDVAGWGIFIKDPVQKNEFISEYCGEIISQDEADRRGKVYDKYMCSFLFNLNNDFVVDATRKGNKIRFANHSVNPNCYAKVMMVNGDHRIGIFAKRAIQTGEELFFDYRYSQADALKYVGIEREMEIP
Chain of EZH2 (O75530 whole entry partner): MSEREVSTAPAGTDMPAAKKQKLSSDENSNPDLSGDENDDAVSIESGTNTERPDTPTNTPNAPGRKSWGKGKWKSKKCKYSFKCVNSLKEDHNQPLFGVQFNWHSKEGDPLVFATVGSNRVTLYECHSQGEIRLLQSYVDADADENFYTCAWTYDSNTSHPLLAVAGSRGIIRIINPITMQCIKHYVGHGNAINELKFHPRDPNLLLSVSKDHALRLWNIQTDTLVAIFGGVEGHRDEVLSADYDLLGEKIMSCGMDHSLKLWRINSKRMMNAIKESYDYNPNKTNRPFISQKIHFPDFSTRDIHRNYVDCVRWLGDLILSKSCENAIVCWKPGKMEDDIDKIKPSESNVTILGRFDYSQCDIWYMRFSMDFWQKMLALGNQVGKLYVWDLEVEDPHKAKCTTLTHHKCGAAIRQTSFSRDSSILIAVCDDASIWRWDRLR
Chain of EZH2 (Q15022 whole entry partner): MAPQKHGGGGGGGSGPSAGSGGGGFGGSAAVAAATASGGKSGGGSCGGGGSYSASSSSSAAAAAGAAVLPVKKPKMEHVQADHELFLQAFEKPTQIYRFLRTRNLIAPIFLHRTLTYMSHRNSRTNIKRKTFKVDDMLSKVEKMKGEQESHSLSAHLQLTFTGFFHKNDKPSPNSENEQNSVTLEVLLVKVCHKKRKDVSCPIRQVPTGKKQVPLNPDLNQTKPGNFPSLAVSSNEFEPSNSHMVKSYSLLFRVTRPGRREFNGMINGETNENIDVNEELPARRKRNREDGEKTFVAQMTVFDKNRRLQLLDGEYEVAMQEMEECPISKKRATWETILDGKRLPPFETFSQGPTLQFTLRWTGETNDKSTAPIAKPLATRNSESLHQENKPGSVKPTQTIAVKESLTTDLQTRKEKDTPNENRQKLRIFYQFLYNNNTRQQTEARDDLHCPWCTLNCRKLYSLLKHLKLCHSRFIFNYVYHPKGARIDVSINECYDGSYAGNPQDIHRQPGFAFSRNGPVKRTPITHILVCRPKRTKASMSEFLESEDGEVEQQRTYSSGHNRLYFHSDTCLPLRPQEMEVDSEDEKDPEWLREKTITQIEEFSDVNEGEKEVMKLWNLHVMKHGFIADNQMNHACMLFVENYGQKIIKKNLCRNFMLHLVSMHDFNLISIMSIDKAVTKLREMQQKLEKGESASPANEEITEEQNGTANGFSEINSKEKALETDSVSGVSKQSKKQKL
Chain of Y641N EZH2 (Q15910 whole entry Y641N): as the sequence (Q15910 whole entry) above, with Y641N counted along it
Chain of Y641N EZH2 (O75530 whole entry partner): as the sequence (O75530 whole entry partner) above
Chain of Y641N EZH2 (Q15022 whole entry partner): as the sequence (Q15022 whole entry partner) above

For `Cc1cc(C)c(CNC(=O)c2ccc(C(C)Oc3ccccc3)c(F)c2)c(=O)[nH]1` (single isomer, unassigned) [Compound I-160, (R)— or (S)-3-fluoro-N-((2-hydroxy-4,6-dimethylpyridin-3-yl)methyl)-4-(1-phenoxyethyl)benzamide], the IC50 [1] was over 80 µM and the IC50 [2] was over 80 µM.

`Cc1cc(C)c(CNC(=O)c2ccc(Oc3ccccc3)cn2)c(=O)[nH]1` [Compound I-21, N-((2-hydroxy-4,6-dimethylpyridin-3-yl)methyl)-5-phenoxypicolinamide] was tested, and the IC50 [1] was 1 to 10 µM and the IC50 [2] was 10 to 50 µM.

`Cc1cc(C)c(CNC(=O)c2ccc3c(c2)CCCC3Oc2ccccc2)c(=O)[nH]1` (centres unmarked) [Compound I-52, N-((2-hydroxy-4,6-dimethylpyridin-3-yl)methyl)-5-phenoxy-5,6,7,8-tetrahydronaphthalene-2-carboxamide] gave an IC50 [1] of 10 to 50 µM and an IC50 [2] of 10 to 50 µM.

`CCC(Oc1ccccc1)c1ccc(C(=O)NCc2c(C)cc(C)[nH]c2=O)cc1` (centres unmarked) [Compound I-44, N-((2-hydroxy-4,6-dimethylpyridin-3-yl)methyl)-4-(1-phenoxypropyl)benzamide] gave an IC50 [1] of under 1 µM and an IC50 [2] of under 1 µM.

Compound `Cc1c[nH]c(=O)c(CNC(=O)c2ccc(C(C)Oc3ccccc3)cc2)c1` (centres unmarked) [Compound I-156] has an IC50 [1] of over 80 µM and an IC50 [2] of over 80 µM.

With `Cc1cc(C)c(CN(C)C(=O)c2ccc(Oc3ccccc3)cc2)c(O)n1` [Compound I-20, N-((2-hydroxy-4,6-dimethylpyridin-3-yl)methyl)-N-methyl-4-phenoxybenzamide] the IC50 [1] was 1 to 10 µM and the IC50 [2] was over 50 µM.

For `Cc1cc(C)c(CNC(=O)c2ccc(C(C)Oc3ccccc3)nc2)c(=O)[nH]1` (centres unmarked) [Compound I-64, N-((2-hydroxy-4,6-dimethylpyridin-3-yl)methyl)-6-(1-phenoxyethyl)nicotinamide], the IC50 [1] was 1 to 10 µM and the IC50 [2] was over 80 µM.

`Cc1cc(C)c(CNC(=O)c2ccc(C(C)N3CCCCC3)cc2C)c(=O)[nH]1` (centres unmarked) [Compound I-87, N-((2-hydroxy-4,6-dimethylpyridin-3-yl)methyl)-2-methyl-4-(1-(piperidin-1-yl)ethyl)benzamide] showed an IC50 [1] of 1 to 10 µM and an IC50 [2] of 1 to 10 µM.

Work on `Cc1cc(C(F)(F)F)[nH]c(=O)c1CNC(=O)c1ccc(Oc2ccccc2)cc1` [Compound I-47, N-((2-hydroxy-4-methyl-6-(trifluoromethyl)pyridin-3-yl)methyl)-4-phenoxybenzamide] yielded an IC50 [1] of over 50 µM and an IC50 [2] of 10 to 50 µM.

Work on `Cc1cc(C)c(CNC(=O)c2ccc(OCc3ccccc3)cc2)c(=O)[nH]1` [Compound I-12, 4-(benzyloxy)-N-((2-hydroxy-4,6-dimethylpyridin-3-yl)methyl)benzamide] yielded an IC50 [1] of 1 to 10 µM and an IC50 [2] of 10 to 50 µM.

Compound `Cc1cc(C)c(CNC(=O)c2ccc(C(Oc3ccccc3)C(C)C)cc2)c(=O)[nH]1` (centres unmarked) [Compound I-43, N-((2-hydroxy-4,6-dimethylpyridin-3-yl)methyl)-4-(2-methyl-1-phenoxypropyl)benzamide] has an IC50 [1] of 10 to 50 µM and an IC50 [2] of over 50 µM.

For `Cc1cc(C)c(CNC(=O)c2ccc(C(C)Oc3ncccn3)cc2)c(=O)[nH]1` (centres unmarked) [Compound I-76, N-((2-hydroxy-4,6-dimethylpyridin-3-yl)methyl)-4-(1-(pyrimidin-2-yloxy)ethyl)benzamide], the IC50 [1] was 10 to 50 µM and the IC50 [2] was over 80 µM.

In the case of `Cc1cc(C)c(CNC(=O)c2ccc(C(C)COc3ccccc3)cc2)c(O)n1` (centres unmarked) [Compound I-116, N-((2-hydroxy-4,6-dimethylpyridin-3-yl)methyl)-4-(1-phenoxypropan-2-yl)benzamide], the IC50 [1] is reported as under 1 µM and the IC50 [2] is reported as over 80 µM.

For `COCC(Oc1ccccc1)c1ccc(C(=O)NCc2c(C)cc(C)[nH]c2=O)cc1` (centres unmarked) [Compound I-193], the IC50 [1] was over 80 µM and the IC50 [2] was over 80 µM.

`Cc1cc(C)c(CNC(=O)c2ccc(S(=O)(=O)c3ccccc3)cc2)c(=O)[nH]1` [Compound I-26, N-((2-hydroxy-4,6-dimethylpyridin-3-yl)methyl)-4-(phenylsulfonyl)benzamide] was tested, and the IC50 [1] was 10 to 50 µM and the IC50 [2] was over 80 µM.

Compound `Cc1cc(C)c(CNC(=O)c2ccc(Nc3ccccc3)cc2)c(=O)[nH]1` [Compound I-19] has an IC50 [1] of 1 to 10 µM and an IC50 [2] of 10 to 50 µM.

In the case of `O=C(NCc1cc2c([nH]c1=O)CCCC2)c1ccc(Oc2ccccc2)cc1` [Compound I-179], the IC50 [1] is reported as over 50 µM and the IC50 [2] is reported as over 80 µM.

`Cc1cc(C)c(CNC(=O)c2ccc(C(C)Oc3ccccc3)c(F)c2)c(=O)[nH]1` (single isomer, unassigned) [Compound I-161, (S)— or (R)-3-fluoro-N-((2-hydroxy-4,6-dimethylpyridin-3-yl)methyl)-4-(1-phenoxyethyl)benzamide] showed an IC50 [1] of under 1 µM and an IC50 [2] of under 1 µM.

For `Cc1cc(C)c(CNC(=O)c2ccc(COc3cccc(-c4ccc(N)nc4)c3)cc2)c(=O)[nH]1` [Compound I-3, 4-((3-(6-aminopyridin-3-yl)phenoxy)methyl)-N-((2-hydroxy-4,6-dimethylpyridin-3-yl)methyl)benzamide], the IC50 [1] was under 1 µM and the IC50 [2] was 1 to 10 µM.

In the case of `Cc1cc(C)c(CNC(=O)c2ccc([C@@H](C)Oc3ccccc3C#N)cc2)c(=O)[nH]1` [Compound I-162], the IC50 [1] is reported as 1 to 10 µM and the IC50 [2] is reported as over 80 µM.

`Cc1cc(C)c(CNC(=O)c2ccc(C(C)Oc3cccc(F)c3)cc2)c(=O)[nH]1` (centres unmarked) [Compound I-42, 4-(1-(3-fluorophenoxy)ethyl)-N-((2-hydroxy-4,6-dimethylpyridin-3-yl)methyl)benzamide] showed an IC50 [1] of under 1 µM and an IC50 [2] of under 1 µM.

`Cc1cc(C)c(CNC(=O)c2ccc(COc3ccccc3)cc2)c(=O)[nH]1` [Compound I-11, N-((2-hydroxy-4,6-dimethylpyridin-3-yl)methyl)-4-(phenoxymethyl)benzamide] showed an IC50 [1] of 1 to 10 µM and an IC50 [2] of 1 to 10 µM.

`Cc1cc(C)c(CNC(=O)c2ccc(C(C)OC3CCCCC3)cc2)c(=O)[nH]1` (centres unmarked) [Compound I-85, 4-(1-(cyclohexyloxy)ethyl)-N-((2-hydroxy-4,6-dimethylpyridin-3-yl)methyl)benzamide] showed an IC50 [1] of under 1 µM and an IC50 [2] of 1 to 10 µM.

In the case of `Cc1cc(C)c(CNC(=O)c2ncc(Oc3ccccc3)cn2)c(=O)[nH]1` [Compound I-159], the IC50 [1] is reported as over 80 µM and the IC50 [2] is reported as over 80 µM.

`Cc1cc(C)c(CNC(=O)c2ccc(CCc3ccccc3)cc2)c(=O)[nH]1` [Compound I-48, N-((2-hydroxy-4,6-dimethylpyridin-3-yl)methyl)-4-phenethylbenzamide] was tested, and the IC50 [1] was 1 to 10 µM and the IC50 [2] was over 80 µM.

For `Cc1cc(C)c(CNC(=O)c2ccc(C(C)Oc3ccc(F)cc3)cc2)c(=O)[nH]1` (centres unmarked) [Compound I-46, 4-(1-(4-fluorophenoxy)ethyl)-N-((2-hydroxy-4,6-dimethylpyridin-3-yl)methyl)benzamide], the IC50 [1] was under 1 µM and the IC50 [2] was under 1 µM.

Work on `Cc1cc(C)c(CNC(=O)c2ccc([C@H](C)Oc3ccccc3)cc2C)c(=O)[nH]1` [Compound I-55, (S)—N-((2-hydroxy-4,6-dimethylpyridin-3-yl)methyl)-2-methyl-4-(1-phenoxyethyl)benzamide] yielded an IC50 [1] of under 1 µM and an IC50 [2] of under 1 µM.

`Cc1cc(C)c(CNC(=O)c2ccc(CNc3ccccc3)cc2)c(=O)[nH]1` [Compound I-40, N-((2-hydroxy-4,6-dimethylpyridin-3-yl)methyl)-4-((phenylamino)methyl)benzamide] gave an IC50 [1] of 1 to 10 µM and an IC50 [2] of 10 to 50 µM.

For `Cc1cc(C)c(CNC(=O)c2ccc(C(C)n3ccccc3=O)cc2)c(=O)[nH]1` (centres unmarked) [Compound I-56, N-((2-hydroxy-4,6-dimethylpyridin-3-yl)methyl)-4-(1-(2-oxopyridin-1(2H)-yl)ethyl)benzamide], the IC50 [1] was 1 to 10 µM and the IC50 [2] was over 80 µM.

With `Cc1cc(C)c(CNC(=O)c2ccc(CN3CCN(CCO)CC3)cc2)c(=O)[nH]1` [Compound I-89, N-((4,6-dimethyl-2-oxo-1,2-dihydropyridin-3-yl)methyl)-4-((4-(2-hydroxyethyl)piperazin-1-yl)methyl)benzamide] the IC50 [1] was 1 to 10 µM and the IC50 [2] was over 80 µM.

`Cc1cc(C)c(CNC(=O)c2ccc(C(C)Oc3cccnc3)nc2)c(=O)[nH]1` (centres unmarked) [Compound I-78, N-((2-hydroxy-4,6-dimethylpyridin-3-yl)methyl)-6-(1-(pyridin-3-yloxy)ethyl)nicotinamide] was tested, and the IC50 [1] was 1 to 10 µM and the IC50 [2] was over 80 µM.
